Data reported in PMC5895059, “Scaffold hopping from (5-hydroxymethyl) isophthalates to multisubstituted pyrimidines diminishes binding affinity to the C1 domain of protein kinase C” (PLoS ONE, 2018).
Several values for one entry are separate records, joined by “and”; a condition that tells them apart may be missing. Identical values can stand only once.

Target: PKCα (Homo sapiens, UniProt P17252)
Test: [3H]PDBu displacement, 96-well plate filtration binding assay
Details: for Displacement assay raw data (CCPM): single replicate wells; for Residual [^3H]PDBu binding to PKCα (% of control): 20 μM compound concentration, mean + SEM, n = 2–8; for Displacement of [^3H]PDBu from PKCα (in words): concentration range of 0.2–30 μM

SMILES	Displacement assay raw data (CCPM) (0,2 µM test substance)	Displacement assay raw data (CCPM) (1 µM test substance)	Displacement assay raw data (CCPM) (4 µM test substance)	Displacement assay raw data (CCPM) (10 µM test substance)	Residual [^3H]PDBu binding to PKCα (% of control)	Displacement assay raw data (CCPM) (20 µM test substance)	Displacement assay raw data (CCPM) (30 µM test substance)	Displacement of [^3H]PDBu from PKCα (in words)
CCCCCCCOC(=O)c1cc(C(=O)OCCCCCCC)nc(CO)n1 [Compound 1a, Diheptyl 2-(hydroxymethyl)pyrimidine-4,6-dicarboxylate]	5564 CCPM and 8472 CCPM and 8055 CCPM and 9131 CCPM and 5172 CCPM and 4908 CCPM	5111 CCPM and 8836 CCPM and 8480 CCPM and 8743 CCPM and 5670 CCPM and 5038 CCPM	5090 CCPM and 8165 CCPM and 8077 CCPM and 7980 CCPM and 5413 CCPM and 5275 CCPM	5789 CCPM and 8577 CCPM and 7653 CCPM and 8759 CCPM and 5036 CCPM and 5595 CCPM	94.1 ± 2.4 % of control	4889 CCPM and 7960 CCPM and 7787 CCPM and 7605 CCPM and 5228 CCPM and 4729 CCPM	4835 CCPM and 7857 CCPM and 7587 CCPM and 5013 CCPM and 5317 CCPM	
CCCCCCCCOC(=O)c1cc(C(=O)OCCCCCCCC)nc(CO)n1 [Compound 1b, Dioctyl 2-(hydroxymethyl)pyrimidine-4,6-dicarboxylate]	7480 CCPM and 1215 CCPM and 1126 CCPM and 1107 CCPM and 7956 CCPM and 7520 CCPM	7638 CCPM and 1213 CCPM and 1392 CCPM and 1115 CCPM and 7562 CCPM and 7593 CCPM	7531 CCPM and 1201 CCPM and 1408 CCPM and 1101 CCPM and 7673 CCPM and 7303 CCPM	7793 CCPM and 1222 CCPM and 1214 CCPM and 1251 CCPM and 7474 CCPM and 6957 CCPM	104.8 ± 5.3 % of control	8435 CCPM and 1194 CCPM and 1172 CCPM and 1054 CCPM and 8891 CCPM and 9450 CCPM	6677 CCPM and 1407 CCPM and 1081 CCPM and 1070 CCPM and 6691 CCPM and 6936 CCPM	
CCCCCCCCCCCOC(=O)c1cc(C(=O)OCCCCCCCCCCC)nc(CO)n1 [Compound 1c, Diundecyl 2-(hydroxymethyl)pyrimidine-4,6-dicarboxylate]	8135 CCPM and 9009 CCPM and 9090 CCPM	7374 CCPM and 8410 CCPM and 8950 CCPM	8779 CCPM and 7927 CCPM and 8172 CCPM	7968 CCPM and 8364 CCPM and 8092 CCPM	103.7 ± 5.3 % of control	7670 CCPM and 9322 CCPM and 8225 CCPM	7089 CCPM and 8399 CCPM and 9539 CCPM	
CCCCC(CC)OC(=O)c1cc(C(=O)OCC)nc(CO)n1 (stereo not shown) [Compound 1d, 4-ethyl 6-(heptan-3-yl) 2-(hydroxymethyl)pyrimidine-4,6-dicarboxylate]	5785 CCPM and 11839 CCPM and 10949 CCPM and 11567 CCPM and 6093 CCPM and 6313 CCPM	5593 CCPM and 11705 CCPM and 12203 CCPM and 11600 CCPM and 5961 CCPM	5222 CCPM and 11573 CCPM and 11709 CCPM and 11091 CCPM and 5210 CCPM and 6475 CCPM	5570 CCPM and 12001 CCPM and 12205 CCPM and 11408 CCPM and 5899 CCPM and 5461 CCPM	98.2 ± 1.6 % of control	5518 CCPM and 11664 CCPM and 11365 CCPM and 11482 CCPM and 5575 CCPM and 5277 CCPM	5500 CCPM and 12337 CCPM and 11581 CCPM and 11144 CCPM and 5029 CCPM and 5100 CCPM	
CCCCC(CC)OC(=O)c1cc(C(=O)OC(CC)CCCC)nc(CO)n1 (stereo not shown) [Compound 1e, Di(heptan-3-yl) 2-(hydroxymethyl)pyrimidine-4,6-dicarboxylate]	5837 CCPM and 9796 CCPM and 9740 CCPM and 9577 CCPM and 6148 CCPM and 6500 CCPM	5874 CCPM and 9629 CCPM and 9242 CCPM and 9347 CCPM and 6081 CCPM and 6166 CCPM	6376 CCPM and 9023 CCPM and 9333 CCPM and 9667 CCPM and 6505 CCPM and 6158 CCPM	5476 CCPM and 8845 CCPM and 9519 CCPM and 8799 CCPM and 5785 CCPM and 5946 CCPM	86.7 ± 7.7 % of control	5873 CCPM and 9742 CCPM and 7884 CCPM and 7727 CCPM and 6291 CCPM and 6049 CCPM	5476 CCPM and 8529 CCPM and 8458 CCPM and 9304 CCPM and 5635 CCPM and 5882 CCPM	
CCCCCC(CC)OC(=O)c1cc(C(=O)OC(CC)CCCCC)nc(CO)n1 (stereo not shown) [Compound 1f, Di(octan-3-yl) 2-(hydroxymethyl)pyrimidine-4,6-dicarboxylate]	8395 CCPM and 7761 CCPM and 8223 CCPM	8430 CCPM and 8004 CCPM and 8035 CCPM	8187 CCPM and 8110 CCPM and 8243 CCPM	6268 CCPM and 7306 CCPM and 7650 CCPM	88.3 ± 2.7 % of control	7244 CCPM and 7065 CCPM and 7340 CCPM	7174 CCPM and 7070 CCPM and 7370 CCPM	
O=C(OCc1cccc(C(F)(F)F)c1)c1cc(C(=O)OCc2cccc(C(F)(F)F)c2)nc(CO)n1 [Compound 1g, Bis[3-(trifluoromethyl)benzyl] 2-(hydroxymethyl)pyrimidine-4,6-dicarboxylate]	5983 CCPM and 11409 CCPM and 12180 CCPM and 12791 CCPM and 7834 CCPM and 6792 CCPM	5197 CCPM and 12142 CCPM and 12212 CCPM and 11135 CCPM and 5159 CCPM and 5208 CCPM	7023 CCPM and 11774 CCPM and 11597 CCPM and 12149 CCPM and 8091 CCPM and 7399 CCPM	6399 CCPM and 11639 CCPM and 11927 CCPM and 11310 CCPM and 6008 CCPM and 6638 CCPM	111.8 ± 6.5 % of control	7300 CCPM and 11874 CCPM and 12244 CCPM and 12079 CCPM and 8018 CCPM and 7727 CCPM	6005 CCPM and 11016 CCPM and 11803 CCPM and 12038 CCPM and 5730 CCPM and 6258 CCPM	could not displace
CCOC(=O)c1cc(C(=O)OCC)nc(CO)n1 [Compound 1h, Diethyl 2-(hydroxymethyl)pyrimidine-4,6-dicarboxylate]	6323 CCPM and 10230 CCPM and 10470 CCPM and 11100 CCPM and 5792 CCPM and 6513 CCPM	5802 CCPM and 9840 CCPM and 9837 CCPM and 10294 CCPM and 5441 CCPM and 6766 CCPM	5407 CCPM and 9299 CCPM and 9482 CCPM and 9928 CCPM and 5323 CCPM and 5809 CCPM	6198 CCPM and 9686 CCPM and 9902 CCPM and 9890 CCPM and 6355 CCPM and 6092 CCPM	116.3 ± 5.9 % of control	6120 CCPM and 9294 CCPM and 10766 CCPM and 9965 CCPM and 5572 CCPM and 5876 CCPM	5421 CCPM and 9318 CCPM and 10014 CCPM and 8246 CCPM and 4984 CCPM and 6346 CCPM	
CCCCCCOC(=O)c1nc(CO)nc(OCCCCCC)c1C [Compound 2a, Hexyl 6-(hexyloxy)-2-(hydroxymethyl)-5-methylpyrimidine-4-carboxylate]	7949 CCPM and 9699 CCPM and 8544 CCPM and 12898 CCPM and 11646 CCPM and 12786 CCPM	7626 CCPM and 8685 CCPM and 9639 CCPM and 11993 CCPM and 12245 CCPM and 12903 CCPM	7496 CCPM and 8524 CCPM and 9257 CCPM and 11421 CCPM and 11194 CCPM and 11877 CCPM	7467 CCPM and 7915 CCPM and 7828 CCPM and 11547 CCPM and 11263 CCPM and 11635 CCPM	85.3 ± 7.4 % of control	6283 CCPM and 8361 CCPM and 8257 CCPM and 10077 CCPM and 11544 CCPM and 10260 CCPM	6598 CCPM and 7105 CCPM and 7428 CCPM and 10040 CCPM and 10575 CCPM and 9972 CCPM	strongest concentration dependence
CCCCCCCOC(=O)c1nc(CO)nc(OCCCCCCC)c1C [Compound 2b, Heptyl 6-(heptyloxy)-2-(hydroxymethyl)-5-methylpyrimidine-4-carboxylate]	13052 CCPM and 11682 CCPM and 11827 CCPM and 17977 CCPM and 18315 CCPM and 17029 CCPM	11258 CCPM and 11582 CCPM and 12305 CCPM and 17512 CCPM and 18998 CCPM and 18500 CCPM	10048 CCPM and 11019 CCPM and 11674 CCPM and 17585 CCPM and 17180 CCPM and 19863 CCPM	10753 CCPM and 10221 CCPM and 10149 CCPM and 14691 CCPM and 16431 CCPM and 16220 CCPM	88.5 ± 5.7 % of control	9620 CCPM and 9492 CCPM and 9656 CCPM and 14771 CCPM and 14660 CCPM and 15872 CCPM	9760 CCPM and 10346 CCPM and 10712 CCPM and 16581 CCPM and 14486 CCPM and 14880 CCPM	
CCCCCCCCOC(=O)c1nc(CO)nc(OCCCCCCCC)c1C [Compound 2c, Octyl 2-(hydroxymethyl)-5-methyl-6-(octyloxy)pyrimidine-4-carboxylate]	12223 CCPM and 10832 CCPM and 10701 CCPM and 18273 CCPM and 16005 CCPM and 17696 CCPM	12118 CCPM and 12391 CCPM and 11284 CCPM and 18079 CCPM and 16200 CCPM and 17048 CCPM	10666 CCPM and 10448 CCPM and 9501 CCPM and 18957 CCPM and 15769 CCPM and 16408 CCPM	10483 CCPM and 10217 CCPM and 10554 CCPM and 15009 CCPM and 15224 CCPM and 15278 CCPM	93.5 ± 6.5 % of control	10634 CCPM and 9873 CCPM and 9750 CCPM and 16572 CCPM and 15241 CCPM and 16254 CCPM	11684 CCPM and 11210 CCPM and 10063 CCPM and 15855 CCPM and 15398 CCPM and 15526 CCPM	
